Key:
Pearl 1ECD = Pearl 1ECD (Homo sapiens, UniProt Q5VY43); conditions: pulldown assays
Description: The assay buffer consisted of lmg/mL BSA, 0.01% Tween 20, and 10 mM Ca^2+ in PBS. The proteins were incubated together for two hours while rotating. Where indicated, 2 μg primary antibodies were added during the final 30 minutes of the initial incubation. Following the incubation, aliquots were reserved as the input fraction. Subsequently, 6-10 μL slurry of Pierce Anti-c-Myc Magnetic Beads, Invitrogen Dynabeads Protein G beads, or Pierce Streptavidin Magnetic Bead slurry were added, followed by a 1-hour incubation at 20° C. with gentle agitation. Beads were washed in PBS +0.01% Tween 20 and resuspended reducing LDS sample buffer and analyzed by immunoblot assay.

AKT [1] = assay: AKT signaling immunoblot, 293T cells; type: cell-based
Description: Cellular reagents were purchased from various commercial vendors. Primary human umbilical vein endothelial cells (HUVECs) were obtained from Cell Applications Inc. and cultured according to the manufacture's recommendations. Primary human coronary artery smooth muscle cells were obtained from Invitrogen and were cultured according to the manufacture's recommendations. 293T cells were obtained from ATCC and were cultured according to the manufacture's recommendations. Mouse primary smooth muscle cells were obtained and cultured as described previously. Predesigned Silencer Select siRNA constructs targeting Pearl 1 and negative control siRNA were obtained from ThermoFisher. Transfections were performed using RNAiMAX or Lipofectamine 3000 transfection reagents according to the manufacturer's protocols. Cells were used for signaling assays 48 hours after transfection; efficient Pearl 1 knockdown or Pearl 1 overexpression was confirmed by immunoblot assays.
Prior to performing signaling assays, cells were trypsinized, centrifuged, suspended in basal media, and counted using an automated hemocytometer. Cells were further diluted in basal media to an assay-dependent concentration. […] Protein content was determined using a bicinchoninic acid assay with BSA standards (#23225, Pierce BCA Protein Assay Kit). […]

Integrin signaling = Integrin signaling western blot, THP-1 cells; type: cell-based, human
Description: Cells were resuspended in serum-free media (SFM) and incubated with gentle agitation to prevent cell attachment and reduce basal signaling. […] Cells were briefly centrifuged to the bottom of the wells and incubated for 8 min (for VSMCs) or 15 min (for THP-1 cells) before lysis with cell lysis buffer (#9803, Cell Signaling Technologies) containing a cocktail of protease and phosphatase inhibitors. Western blots were performed by standard techniques, as briefly follows. Protein content was determined using a bicinchoninic acid assay with BSA standards (#23225, Pierce™ BCA Protein Assay Kit). Cell lysates were then reduced with DTT in lithium dodecyl sulfate sample buffer (#NP0007, Invitrogen). Equal protein amounts were added to polyacrylamide gels (#4561086, BioRad) and electrophoresed prior to transferring to a nitrocellulose or polyvinylidene fluoride membrane (#1620260, BioRad). Membranes were blocked in 5% BSA/Tris-Buffered Saline with tween 20 for 30 min. The indicated primary antibodies were incubated with the pre-blocked membranes for overnight at 4° C. Membranes were washed with Tris-Buffered Saline with tween 20, probed with fluorescent secondary antibodies, and imaged. β-actin or β-tubulin served as a loading control.

platelets [2] = tested on: platelets
Description: (§1) Complete blood counts (CBC) and washed platelet counts were determined using a hematology analyzer Element HT5 (Heska, Loveland). […] For flow cytometry, diluted whole blood or isolated platelets were pre-incubated with their respective fluorescent antibodies for 15 minutes and fixed. For murine whole blood: CD41-VioBlue, CD61-PE (Mitlenyi Biotec, Bergisch Gladbach, Germany), CD42b-DL649, GPVI-FITC (Emfret, Eibelstadt, Germany) and for human whole blood and isolated platelets: CD41-FITC, CD61-APC, CD42b-PE (Biolegend, San Diego), GPVI-BV421 617 (BD, Franklin Lakes). Platelet surface receptor levels were quantified by flow cytometry on a 618 CytoFlex analyzer.

platelets [3] = tested on: platelets; remark: listed apart in the source
Description: as §1
Samples were immediately fixed and run using a CytoFlex analyzer (Beckman Coulter, Pasadena) and analysis was performed with Kaluza software (Beckman Coulter, Pasadena).

AKT [4] = assay: AKT signaling immunoblot, platelets; type: cell-based, human; conditions: platelets, vs BSA
Description: Prior to performing signaling assays, cells were trypsinized, centrifuged, suspended in basal media, and counted using an automated hemocytometer. Cells were further diluted in basal media to an assay-dependent concentration. Cells were then incubated with gentle agitation for 60 minutes to prevent cell attachment and reduce basal signaling. PP1, Dynasore, MK-2206, and Rapamycin were diluted in DMSO and used in assay concentrations of 10 μM, 100 μM, 10 μM, and respectively, for the final 20-30 minutes of incubation in basal media. An equal volume of DMSO was used as the negative control condition. […] 1 μg Pearl 1 polyclonal antibody was added as a specific positive control. 20% growth media or 2% fetal bovine serum, labeled “Serum” in figures, was added as a non-specific positive control. The cells were centrifuged at 300G for 3 minutes with the exception of platelets, which were centrifuged at 500G for 5 minutes. The cells were then incubated at 37° C. for 8-45 minutes, depending on the cell type and pathway of interest. The cells were lysed in radioimmunoprecipitation buffer (RIPA) containing a cocktail of protease and phosphatase inhibitors and universal nuclease. Immunoblots were performed by standard techniques, as briefly follows. Protein content was determined using a bicinchoninic acid assay with BSA standards (#23225, Pierce BCA Protein Assay Kit). Cell lysates were then reduced with dithiothreitol (DTT) in lithium dodecyl sulfate (LDS) sample buffer (#NP0007, Invitrogen). Equal protein amounts were added to polyacrylamide gels (#4561086, BioRad) and electrophoresed prior to transferring to a nitrocellulose or polyvinylidene fluoride membrane (#1620260, BioRad). Membranes were blocked in 5% BSA/Tris-buffered saline (TBS) with 0.1% Tween 20 for 30 minutes. The indicated primary antibodies were incubated with the pre-blocked membranes overnight at 4° C. Membranes were washed with TBS with 0.1% Tween 20, probed with fluorescent secondary antibodies, and imaged. β-actin or β-tubulin served as a loading control.
Whole blood was collected by venipuncture into either heparin vacutainers (BD, Franklin Lakes) for whole blood experiments or acid-citrate-dextrose (ACD) vacutainers (BD, Franklin Lakes) for platelet isolation studies. For platelet isolation, samples were supplemented with apyrase (Sigma, St Louis) and prostaglandin E1 (Cayman Chemical, Ann Arbor), and platelet-rich plasma (PRP) was prepared by centrifugation of the ACD whole blood for 20 minutes at 200G. Platelets were isolated from the PRP by centrifugation for 10 minutes at 1000G and resuspended in modified Tyrode's buffer twice at desired platelet counts and kept at 37° C. until used. Isolated platelets were used within 2 hours of preparation.

Sequence of Pearl 1ECD (Q5VY43 21-755 limits assumed): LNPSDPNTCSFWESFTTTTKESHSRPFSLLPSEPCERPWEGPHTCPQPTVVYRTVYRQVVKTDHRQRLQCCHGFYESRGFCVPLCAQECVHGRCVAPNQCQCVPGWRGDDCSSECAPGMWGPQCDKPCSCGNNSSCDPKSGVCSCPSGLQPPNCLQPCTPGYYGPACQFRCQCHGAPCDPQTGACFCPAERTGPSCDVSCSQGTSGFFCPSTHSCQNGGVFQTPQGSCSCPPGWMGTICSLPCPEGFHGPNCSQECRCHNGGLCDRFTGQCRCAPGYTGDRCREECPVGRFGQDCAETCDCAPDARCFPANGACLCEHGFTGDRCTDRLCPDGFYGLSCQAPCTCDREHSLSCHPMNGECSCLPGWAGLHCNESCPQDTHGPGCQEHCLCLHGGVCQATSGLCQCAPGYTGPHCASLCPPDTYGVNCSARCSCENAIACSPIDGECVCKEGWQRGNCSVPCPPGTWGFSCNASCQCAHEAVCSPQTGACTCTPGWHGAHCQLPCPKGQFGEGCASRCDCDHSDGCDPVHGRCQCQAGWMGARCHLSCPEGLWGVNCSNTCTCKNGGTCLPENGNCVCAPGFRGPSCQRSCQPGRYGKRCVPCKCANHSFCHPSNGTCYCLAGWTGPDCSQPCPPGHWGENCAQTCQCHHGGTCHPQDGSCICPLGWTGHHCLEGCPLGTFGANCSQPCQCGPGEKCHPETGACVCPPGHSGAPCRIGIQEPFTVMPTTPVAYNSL

SVEP1: recombinant murine SVEP1 extracellular matrix protein with Myc and poly-histidine tag, expressed in 293F cells
co-immunoprecipitation of Pearl 1ECD with Myc-tagged SVEP1 (Pearl 1ECD): co-immunoprecipitates
pAKT levels (AKT [1]; 293T cells transfected with Pearl 1-expression plasmid (constitutive AKT activation)): no additional effect on pAKT levels
AKT activation (AKT [1]; 293T cells, which lack Pearl 1): Neither SVEP1 nor Pearl 1 pAb activated AKT
integrin signaling (Integrin signaling): activated
platelet aggregation and agglutination (platelets [2]; platelets from mice compared to humans): notably milder
platelet aggregation (decrease in whole blood platelet count) (platelets [2]; soluble recombinant SVEP1, human whole blood): induced spontaneous platelet aggregation and agglutination
platelet receptor density (platelets [3]; freshly isolated human platelets, soluble SVEP1): lower levels of receptor CD42b and CD61
integrin aIIbβ3 activation (active CD41/61) (platelets [3]; isolated human platelets, basal and with ADP, TRAP6): increased
P-selectin expression (platelets [3]; isolated human platelets, with ADP, TRAP6): increased
AKT phosphorylation (pAKT) (AKT [4]): induced AKT phosphorylation
